Read-outs that look alike come from different tables or passages of the source.
Columns and labels:
[1] = in vivo; cited from earlier work
[2] = test system: influenza virus H9N2 (A/Chicken/Korea/MS96/96); assay: microbe, parasite or virus in culture; settings: H9N2, MDCK, in Gallus gallus, read-out: EC50, 50% antiviral concentration
in vitro [3] = settings: dog, mdck
[4] = target: neuraminidase (R&D SYSTEM, 4858-NM) of recombinant rvH1N1 influenza A virus of 1918 Spanish flu virus (A/Bervig_Mission/1/18) (Influenza A virus, UniProt Q9IGQ6); assay: biochemical; parameters: species or system influenza A virus A/Bervig_Mission/1/18 (rvH1N1)
[5] = test system: influenza virus H9N2 (A/Chicken/Korea/MS96/96); assay: microbe, parasite or virus in culture; settings: H9N2, MDCK, in Gallus gallus, read-out: EC50, 50% antiviral concentration; remark: listed apart in the source
[6] = target: neuraminidase of recombinant rvH1N1 influenza A virus (A/Bervig_Mission/1/18) (Influenza A virus, UniProt Q9IGQ6); assay: biochemical
in vitro [7] = settings: dog
[8] = test system: influenza virus H9N2 (A/Chicken/Korea/MS96/96); assay: microbe, parasite or virus in culture; settings: H9N2, MDCK, in Gallus gallus, read-out: EC50, 50% antiviral concentration; remark: listed apart in the source
[9] = test system: influenza virus H9N2 (A/Chicken/Korea/MS96/96); assay: in vitro; settings: dog
[10] = test system: influenza virus H9N2 (A/Chicken/Korea/MS96/96); assay: in vitro; settings: dog; remark: listed apart in the source
[11] = test system: influenza virus H9N2 (A/Chicken/Korea/MS96/96); assay: microbe, parasite or virus in culture; settings: H9N2, MDCK, in Gallus gallus, read-out: EC50, 50% antiviral concentration; remark: listed apart in the source
[12] = in vivo; cited from earlier work; remark: listed apart in the source
[13] = test system: influenza virus H9N2 (A/Chicken/Korea/MS96/96); settings: read-out: EC50, 50% antiviral concentration
[14] = test system: Madin-Darby canine kidney (MDCK, ATCC CCL-34) cell
[15] = test system: influenza virus H9N2 (A/Chicken/Korea/MS96/96); settings: read-out: EC50, 50% antiviral concentration; remark: listed apart in the source
[16] = read-out: Neuraminidase inhibitory activity (IC50) A/Bervig-Mission/1/18 (rvH1N1)

neuraminidase of recombinant rvH1N1 influenza A virus (A/Bervig_Mission/1/18), sequence (Q9IGQ6 whole entry, looked up): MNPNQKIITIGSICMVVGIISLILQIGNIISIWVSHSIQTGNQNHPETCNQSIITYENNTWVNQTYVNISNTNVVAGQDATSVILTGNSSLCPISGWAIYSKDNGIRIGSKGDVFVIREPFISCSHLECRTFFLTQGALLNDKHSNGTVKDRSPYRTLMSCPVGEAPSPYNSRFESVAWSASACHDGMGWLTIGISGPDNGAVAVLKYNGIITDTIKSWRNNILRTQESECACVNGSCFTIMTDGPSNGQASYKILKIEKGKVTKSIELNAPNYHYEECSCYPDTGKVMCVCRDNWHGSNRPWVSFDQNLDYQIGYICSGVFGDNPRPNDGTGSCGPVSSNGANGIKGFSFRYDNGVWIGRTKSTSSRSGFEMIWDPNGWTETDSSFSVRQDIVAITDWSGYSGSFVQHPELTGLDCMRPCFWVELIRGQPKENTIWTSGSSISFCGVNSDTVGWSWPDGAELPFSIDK
neuraminidase (R&D SYSTEM, 4858-NM) of recombinant rvH1N1 influenza A virus of 1918 Spanish flu virus (A/Bervig_Mission/1/18), sequence (Q9IGQ6 36-469 limits assumed): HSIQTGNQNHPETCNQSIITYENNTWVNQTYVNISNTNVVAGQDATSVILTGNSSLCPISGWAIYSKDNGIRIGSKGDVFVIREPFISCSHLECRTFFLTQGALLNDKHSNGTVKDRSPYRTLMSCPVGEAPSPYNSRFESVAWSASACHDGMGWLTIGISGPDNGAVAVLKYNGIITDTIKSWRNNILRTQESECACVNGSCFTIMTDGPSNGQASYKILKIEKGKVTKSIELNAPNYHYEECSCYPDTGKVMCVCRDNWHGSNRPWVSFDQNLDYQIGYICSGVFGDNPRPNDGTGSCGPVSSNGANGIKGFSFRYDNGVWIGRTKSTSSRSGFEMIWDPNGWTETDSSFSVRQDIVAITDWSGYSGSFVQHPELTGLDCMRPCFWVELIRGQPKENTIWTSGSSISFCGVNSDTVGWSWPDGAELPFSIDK

Question: For `NC12CC3CC(CC(C3)C1)C2` [Amatadine], which side effects [1] is on record?
Answer: The side effects was “severe side effects occur in the nervous system and stomach”.

Question: With `O=C(/C=C(O)/C=C/c1ccc(O)cc1)/C=C/c1ccc(O)cc1` [Bisdemethoxycurcumin] as the compound, how does the EC50 [2] read?
Answer: The EC50 was 182 µM.

Question: And the CC50 (in vitro [3])?
Answer: Its CC50 is greater than 200 µM.

Question: And the IC50 [4]?
Answer: Its IC50 is 6 µM.

Question: What about the EC50 [5] of the same compound?
Answer: Its EC50 is greater than 200 µM.

Question: For `COc1cc(/C=C/C(=O)/C=C(O)/C=C/c2ccc(O)c(OC)c2)ccc1O` [Curcumin], which IC50 [6] is on record?
Answer: The IC50 was 3 µM.

Question: What about the CC50 (in vitro [7]) of the same compound?
Answer: Its CC50 is 94.1 µM.

Question: Which results are given for `COc1cc(/C=C/C(=O)/C=C(O)/C=C/c2ccc(O)cc2)ccc1O` [Demethoxycurcumin]?
Answer: CC50 (in vitro [3]): 97 µM; IC50 [4]: 3 µM

Question: With `CCOC(=O)C1=C[C@@H](OC(CC)CC)[C@H](NC(C)=O)[C@@H](N)C1` [Oseltamivir] as the compound, how does the side effects [1] read?
Answer: Its side effects is “severe vomiting”.

Question: With `CC(N)C12CC3CC(CC(C3)C1)C2` (centres unmarked) [Rimatadine] as the compound, how does the side effects [1] read?
Answer: The side effects was “severe side effects occur in the nervous system and stomach”.

Question: Which EC50 [8] does the source give for `CCOC(=O)C1=C[C@@H](OC(CC)CC)[C@H](NC(C)=O)[C@@H](N)C1` [Tamiflu, reference compound] here?
Answer: Its EC50 is less than 1 µM.

Question: And the selectivity ratio [9]?
Answer: The selectivity ratio was greater than 200.

Question: What about the CC50 (in vitro [7]) of the same compound?
Answer: Its CC50 is greater than 200 µM.

Question: What about the selectivity ratio [10] of the same compound?
Answer: Its selectivity ratio is greater than 200.

Question: What about the EC50 [11] of the same compound?
Answer: The EC50 was less than 1 µM.

Question: For `CC(=O)N[C@H]1[C@H]([C@H](O)[C@H](O)CO)OC(C(=O)O)=C[C@@H]1N=C(N)N` [Zanamivir], which “release from the kidney” value [12] is on record?
Answer: The value was “quick release from the kidney”.

Question: What does the source list for Bisdemethoxycurcumin?
Answer: IC50 [6, 16]: 6 µM; EC50 [13]: > 200 µM; CC50 [14]: > 200 µM; EC50 [15]: 182 µM

Question: What does the source list for Demethoxycurcumin?
Answer: IC50 [6, 16]: 3 µM; CC50 [14]: 97 µM

From patent US8545903B2 (priority 2009, dated 2013)
